Where “and” joins values, the source holds several entries; their conditions need not be identical. Equal values may be shown once.
How the values were obtained:
[1] = tested on: primary human fibroblasts (VH10); experiment: cytotoxicity, MTT test; type: cell-based; conditions: VH10 cells, 24 h, 15–1000 µM
Procedure: Primary human fibroblasts (VH10) were cultured at 37 °C in a humidified 5% CO2 atmosphere in plastic dishes in Dulbecco’s modified eagle medium (DMEM) supplemented with 10% heat inactivated fetal calf serum, 2 mM of l-glutamine, and antibiotics (100 units/mL penicillin and 100 µg/mL streptomycin). Cytotoxic properties of manganese complexes were measured by EZcount^TM MTT cell assay kit (HiMedia Laboratories Pvt., Ltd., Mumbai, India) in accordance with the manufacturer’s instructions. Cells were seeded into a 96-well plate and incubated with manganese complexes in the concentration range of 15–1000 µM for 24 h at 37 °C in a humidified atmosphere of 5% CO2. After incubation, a solution of MTT (3-[4,5-dimethylthiazol-2-yl]-2, 5-diphenyl tetrazolium bromide) at a concentration (1 mg/mL) was added to each well. After incubation at 37 °C for 4 h, 100 µL of 0.04 M HCl in isopropanol was added to each well and mixed thoroughly to dissolve the dark blue crystals. The measurement of absorbance of the solution related to the number of live cells was conducted on a TECAN Spark Microplate Reader (TECAN, Männedorf, Switzerland) at 570 nm with a reference wavelength 600 nm. All samples were tested in three independent experiments. Results were normalized to the control.
Inhibitory concentrations (IC50) represent the concentrations of the tested samples required to inhibit 50% cell proliferation and were calculated from the mean values of data from wells.

[2] = tested on: Pseudomonas aeruginosa LES B58; experiment: broth microdilution MIC, P. aeruginosa LES B58; type: cell-based; conditions: P. aeruginosa LES B58, planktonic cells
Procedure: (§1) The antimicrobial activities of the heteroaromatic ligands, Mn(II) complexes, and commercially available drug streptomycin were tested against standard bacterial strains: Staphylococcus aureus ATCC 6538P, Escherichia coli ATCC 8739, Pseudomonas aeruginosa PAO1 (biofilm model strain), and Pseudomonas aeruginosa LES B58 (clinical isolate). The P. aeruginosa PAO1 and LES B58 isolates were derived from the International Pseudomonas aeruginosa Reference Panel (http://bccm.belspo.be/about-us/bccm-lmg, accessed on 30 March 2021).
(§2) All bacteria species were cultivated in trypticase soy broth (TSB) medium (Biocorp, Warsaw, Poland) for 18 h at 37 °C with shaking (160 rpm). Overnight cultures of bacteria were diluted 1:100 into fresh TSB medium and then placed in each of the 96 wells of a microtiter transparent plate (Greiner, Monroe, NC, USA). The manganese(II) complexes—[Mn-pyOH-SO4]n, Mn-imCHO-NO3, Mn-imCHO-Cl, Mn-dipyCO-NO3—and the ligands—pyOH, pyCOOH—were prepared by dissolving compounds in distilled water. […] The starting stock solution was of 2-mM concentration.
(§3) The quantitative assay of the antibacterial activity was performed by the broth microdilution method, in 96-well microtiter plates, in order to establish the minimum inhibitory concentration (MIC). To this purpose, serial two-fold dilutions of the compounds ranging between 1 and 0.0625 mM were made. The details of the experiment were presented in our previous paper.

[3] = tested on: P. aeruginosa PAO1 biofilm; experiment: biofilm formation, crystal violet staining assay; type: cell-based, Pseudomonas aeruginosa; conditions: P. aeruginosa PAO1, vs untreated control
Procedure: as §2
To evaluate the effect of the compounds on P. aeruginosa biofilm formation, a crystal violet staining assay was used, following previously described protocols. The concentration of the investigated compounds was in the range 0.0625–1 mM. The amount of biofilm formed was determined by measuring the absorbance at λ = 595 nm with the Infinite M200 PRO microplate reader (Tecan, Männedorf, Switzerland). The measurement results, expressed in absorbance units, were converted into percentages to allow the comparison of numerical data obtained in different experiments.

[4] = tested on: Escherichia coli ATCC 8739; experiment: broth microdilution MIC, E. coli; type: cell-based; conditions: planktonic cells
Procedure: as §1, §2, §3

[5] = tested on: P. aeruginosa PAO1 biofilm; experiment: LIVE/DEAD fluorescence assay of biofilm (epifluorescence microscopy); type: cell-based, Pseudomonas aeruginosa; conditions: 0.5 mM, 24 h
Procedure: The effect of the manganese complexes (the concentration of 0.5 mM) on the cell viability of P. aeruginosa in the biofilm layers using the LIVE/DEAD fluorescence assay was also assessed. The mixture of two fluorescent dyes, the dye SYTO-9, and the propidium iodide (included in the FilmTracer™ LIVE/DEAD Biofilm Viability Kit) was used to distinguish live and dead cells. The SYTO-9 can penetrate most membranes freely and is used for assessing total cell counts. In contrast, propidium iodide penetrates cells with compromised membranes, differentiating the damaged bacterial cells from a metabolic active, live cells. As a result, microorganisms with intact cell membranes stain fluorescent green, whereas microorganisms with damaged membranes stain fluorescent red. […] The presence of compounds in the culture caused the aggregation of cells into microcolonies, which was not observed in the control. This observation proves that bacteria were trying to protect themselves against the effect of the complexes tested.
Fluorescence microscopy was used to image live/dead cells in the P. aeruginosa PAO1 biofilm. First, the overnight culture of bacteria was diluted with fresh TSB medium (1:100). […]

Row | SMILES | IC50 [1] [µM] | MIC [2] | % Inhibit. Biofilm (0.25 mM) [3] [%] | % Inhibit. Biofilm (0.5 mM) [3] [%] | MIC [4] | effect on biofilm structure and cell viability (LIVE/DEAD images) [5]
1 | Cc1[nH]cnc1C=O.Cc1[nH]cnc1C=O.O=[N+]([O-])[O-].O=[N+]([O-])[O-].[Mn+2] [Mn-imCHO-NO3] | > 1000 | > 1 mM and > 399 μg/ml | 52 | 56 | > 1 mM and > 399 μg/ml | damage to the bacterial cell walls
2 | O=[N+]([O-])[O-].O=[N+]([O-])[O-].OCc1ccccn1.OCc1ccccn1.[Mn+2] [Mn-pyOH-NO3] | 1000 | > 1 mM and > 397 μg/ml | 49 | 54 | > 1 mM and > 397 μg/ml | damage to the bacterial cell walls

From publication PMC8124774, “Tuning Anti-Biofilm Activity of Manganese(II) Complexes: Linking Biological Effectiveness of Heteroaromatic Complexes of Alcohol, Aldehyde, Ketone, and Carboxylic Acid with Structural Effects and Redox Activity” (International Journal of Molecular Sciences, 2021)
